The values below come from ChEMBL document CHEMBL3507680, “University of Dundee, Gates Library screen for HepG2 cell viability”.

A short description of the data set: Human HepG2 cell viability assay in 384 well format. Format: toxicity, cell-based. On the set-up: dose 125 nL, time 70.5 hour; cytotoxicity at 70.5 h: concentration not given beside the values. To be noted: HepG2 cells, read-out: Inhibition.
For `CCN1CCC(NC(=O)CN2CCCC2Cn2nc(C)nc2C)CC1` (stereo not drawn), the cytotoxicity at 70.5 h came to 3.87%.

As to `CN(Cc1nc(-c2ccoc2)no1)C1CCCN(c2cccnn2)C1` (stereo not drawn), the cytotoxicity at 70.5 h came to 1.16%.

On to `CCn1cnnc1CNC(=O)N(C)C(C)c1cccs1` (stereo not drawn), for which the cytotoxicity at 70.5 h is -0.961%. In the case of `CN(CC(=O)NCc1cccnc1N1CCCCC1)C(=O)c1cccs1` it was 0.0514%; in that of `Cn1cnnc1C1CCN(C(=O)CCCOc2ccccc2)CC1`, -0.661%; in that of `Cc1ccccc1OCCC(=O)N1CCC(c2nncn2C)CC1`, -0.859%. Consider `COc1cccc(S(=O)(=O)CCN2CCn3c(C)nnc3C2)c1`, for which the cytotoxicity at 70.5 h was determined as 1.41%. In the case of `Cc1ncc2c(n1)CN(CCCOc1ccc(C#N)cc1)CC2` it was 3.97%.

Consider `OC(CN1CCN(Cc2nc(C3CC3)no2)CC1)c1ccccc1` (stereo not drawn), for which the cytotoxicity at 70.5 h is 2%.

For `N#Cc1ccc(OCC(O)CN2CCc3cncnc3C2)cc1` (stereo not drawn), the cytotoxicity at 70.5 h was determined as 2.9%. As for `Cc1nnc(CN2CCN(CC(O)c3ccccc3)CC2)o1` (stereo not drawn), the cytotoxicity at 70.5 h is -1.4%. With `N#CCc1cccc(C(=O)N2CCN(CC(O)c3ccccc3)CC2)c1` (stereo not drawn), the cytotoxicity at 70.5 h worked out at 2.39%.

With `COc1ccc2cc(C(=O)N3CCCC3Cn3cc(C)cn3)[nH]c2c1` (stereo not drawn), the cytotoxicity at 70.5 h worked out at 2.37%. Take `COc1ccc(OC)c(C(=O)N2CCCCC2Cn2cccn2)c1` (stereo not drawn): the cytotoxicity at 70.5 h is -0.39%. In the case of `CC(=O)Nc1nc(C(=O)N2CCCC2c2noc(C(C)C)n2)cs1` (stereo not drawn) it was 1.7%; in that of `Cc1noc(C)c1CN1CCOC(CNc2cccnn2)C1` (stereo not drawn), 23.1%; in that of `CCc1nc(CN2CCCN(C(=O)C(CC)OC)CC2)cs1` (stereo not drawn), 6.03%.

Consider `Cn1c(C2CC2)nc2c1CCN(CCOc1cccc(F)c1)C2`, for which the cytotoxicity at 70.5 h was found to be 5.07%. Under `Cc1cc(CN(C)C(=O)NC2CCN(Cc3ccccn3)CC2)no1` stands 1.36%; under `CCc1nc(CN2CCCN(C(=O)CCCOC)CC2)cs1`, 2.4%; under `CN(Cc1cnn(C)c1)C(=O)C1CCCN1Cc1ccccn1` (stereo not drawn), 26.2%. In the case of `Cc1noc(CCCC(=O)NCC2CCS(=O)(=O)C2)n1` (stereo not drawn) it was 1.41%; in that of `CCc1nc(CN2CCCN(C(=O)CCOC(C)C)CC2)cs1`, 0.154%.

For the compound `Cc1cc(CN2CCOC(CNc3cccnn3)C2)on1` (stereo not drawn), the cytotoxicity at 70.5 h was -0.746%.

As for `CN(C)c1cc(CNC(=O)c2cccc(F)c2)ccn1`, the cytotoxicity at 70.5 h worked out at 12.7%. As for `O=C(NCCN1CCCCCC1=O)c1ccc(=O)[nH]n1`, the cytotoxicity at 70.5 h is 2.56%.

With `COc1ccccc1C(O)CNC(=O)NCc1cc[nH]n1` (stereo not drawn), the cytotoxicity at 70.5 h is -4.26%. In the case of `CN(C)c1cc(CNC(=O)c2ccc(F)cc2)ccn1` it was 2.85%; in that of `CC(Cn1ccnc1)NC(=O)NCc1ccc2c(c1)OCCO2` (stereo not drawn), 2.17%. Take `O=C1CCc2cc(-c3csc(CCN4CCOC4=O)n3)ccc2N1`: the cytotoxicity at 70.5 h came to 2.18%. Consider `O=C1CCc2cc(-c3csc(CCN4CCOC4=O)n3)c(F)cc2N1`, for which the cytotoxicity at 70.5 h was determined as 24.3%. Under `CC(c1cc(F)ccc1F)N(C)C(=O)NCc1ccnc(N(C)C)c1` (stereo not drawn) stands 2.05%; under `CC(C)c1nc2c(n1C)CCN(CC(=O)Nc1nncs1)C2`, 6.98%; under `CN(C)c1ccc(C(=O)N2CCN(CC(O)C(C)(C)C)CC2)nn1` (stereo not drawn), 0.302%. Consider `CCC(O)CN1CCN(C(=O)c2ccc(N(C)C)nn2)CC1` (stereo not drawn), for which the cytotoxicity at 70.5 h was -2.61%. As for `Cc1cc(CN2CCOC(CNc3cccnn3)C2)no1` (stereo not drawn), the cytotoxicity at 70.5 h turned out to be 2.59%. In the case of `OCC1CCCN1c1cc(NCc2cccnc2)ncn1` (stereo not drawn) it was -1.41%; in that of `c1cnnc(NCC2CN(Cc3ccon3)CCO2)c1` (stereo not drawn), 26.6%. In the case of `Cn1c(C2CC2)nc2c1CCN(CC(=O)Nc1nccs1)C2` it was -6.18%; in that of `Cc1ncc(CN2CCOC(CNc3cccnn3)C2)s1` (stereo not drawn), 2.68%; in that of `Cc1nnc2n1CCN(C(=O)c1ccnc(N(C)C)c1)C2`, 6.98%. In the case of `CN(Cc1noc(C2CC2)n1)C1CCN(CCS(C)(=O)=O)C1` (stereo not drawn), the cytotoxicity at 70.5 h is -3.36%. In the case of `CCn1ccnc1CN1CCCC1c1noc(C2CC2)n1` (stereo not drawn) it was -2.39%; in that of `Cc1ncsc1CNC(=O)N(CCCO)C1CCc2ccccc21` (stereo not drawn), -7.98%. In the case of `Cc1nc(C2CCCN2Cc2ccon2)no1` (stereo not drawn) it was -5.54%. Under `Cn1ccnc1CNCC1CCCN1c1cccnn1` (stereo not drawn) stands -4.3%; under `FC(F)(F)Cn1ccnc1CNCC1CCCN1c1cccnn1` (stereo not drawn), -13.2%; under `Cc1noc(C)c1CN(C)CC(=O)N1CCc2sccc2C1`, -1.77%. Consider `CC(C)c1nc(C2CCCN2Cc2nccn2CC(F)(F)F)no1` (stereo not drawn), for which the cytotoxicity at 70.5 h was -8.8%. Under `CCOc1ncccc1C(=O)N1CCC(Nc2ccc(C)nn2)CC1` stands -2.98%; under `NC(=O)NC(=O)CN1CCN(c2nccs2)CC1`, -11.6%; under `NC(=O)NC(=O)CCN1CCN(c2nccs2)CC1`, 19.6%. In the case of `Cc1cccc(-c2ccc(C(=O)NCC(C)(C)C(N)=O)c(=O)[nH]2)c1` it was -18.8%. With `COc1ccc(Cl)cc1NCC(=O)NCCc1ccccn1`, the cytotoxicity at 70.5 h came out at 5.95%. In the case of `CC(C)C(C(=O)N1CCC(N(C)c2cccnn2)CC1)n1cncn1` (stereo not drawn) it was -12.6%; in that of `Cc1ccc(NC2CCN(C(=O)CC3CCCO3)CC2)nn1` (stereo not drawn), -11.8%. In the case of `CC(C(=O)N1CCC(Nc2cccnn2)CC1)n1ccnc1` (stereo not drawn) it was -8.6%. Under `Cc1nnc(CN2CCCC(c3cc(C(N)=O)[nH]n3)C2)o1` (stereo not drawn) stands -15.2%; under `c1ccc(CNC2CCc3ncnn3C2)nc1` (stereo not drawn), 6.6%. Turning to `CC(NCc1c(C(C)C)nn(C)c1N1CCOCC1)C(N)=O` (stereo not drawn), the cytotoxicity at 70.5 h was found to be 15.3%. In the case of `CC(C)c1nn(C)c(N2CCOCC2)c1CNCC(=O)N(C)C` it was -6.07%; in that of `CCN(CC)C(=O)C(c1ccccc1)N1CCn2c(C)nnc2C1` (stereo not drawn), 2.24%; in that of `c1ccc(-n2ncc(CNC3CCc4ncnn4C3)n2)cc1` (stereo not drawn), -10.4%.

Turning to `c1ccc(-c2cnc(CNC3CCCN(c4cccnn4)C3)o2)cc1` (stereo not drawn), the cytotoxicity at 70.5 h was -4.5%. In the case of `O=C(NCCOc1ccc2c(c1)CCC2)N1CCS(=O)(=O)CC1` it was 23.8%. Under `O=C(Cc1ccccc1Cl)N1CCCC(n2cncn2)C1` (stereo not drawn) stands -7.27%. Under `Cc1ccc2oc(C(=O)N3CCCC(n4nc(C)cc4C)C3)cc2n1` (stereo not drawn) stands -2.12%. As to `Cc1ccc(NC(=O)C2CSCN2C(=O)c2cc[nH]n2)c(C)c1` (stereo not drawn), the cytotoxicity at 70.5 h was -2.12%. Under `Cc1cc(CNc2cc(Cl)ccc2Cl)no1` stands -14.1%; under `CC(C)NC(=O)C(c1ccccc1)N1CCn2c(nnc2C2CC2)C1` (stereo not drawn), 2.95%. In the case of `Cc1ccccc1OCCC(=O)N1CCCC(n2cncn2)C1` (stereo not drawn) it was -6.17%. In the case of `O=C(COc1ccc2c(c1)CCC2)NS(=O)(=O)c1cncc(Br)c1` it was -2.54%; in that of `Cc1ccoc1-c1nnc(CN2CCCC(Cn3cncn3)C2)o1` (stereo not drawn), -6.83%.

As to `CNC(=O)c1ccc(CN(C(=O)c2scnc2C)C2CC2)cc1`, the cytotoxicity at 70.5 h was found to be 29.9%. Under `CNC(=O)CCCNCc1c(C)nn(C)c1N(C)C` stands -1.74%; under `COc1ccc(-c2nc(CN3CCc4c(ncn4C)C3)cs2)cc1`, 21.3%. Under `CCN(CC1CCOC1)C(=O)Nc1ccc(OC)nc1` (stereo not drawn) stands 24.3%.

Turning to `CCOc1ccc(Cl)c(C(=O)N(C)C)n1`, the cytotoxicity at 70.5 h is -2.99%. Under `Cc1ccc(CC(=O)N2CCc3nnc(N(C)C)cc3C2)cn1` stands -3.16%. `Cn1ccc(CN2CCCC2c2ccc3c(c2)OCCCO3)cc1=O` (stereo not drawn): the cytotoxicity at 70.5 h was -12.3%. Under `COc1ccc(CC(=O)N2CCc3nnc(N(C)C)cc3C2)cc1F` stands -2.52%; under `CCC1c2ccsc2CCN1C(=O)NCCNc1ncccn1` (stereo not drawn), 0.287%; under `COc1cccc(-n2nnc(C(=O)N3CCNC(=O)C3)c2C)c1`, 28%. Under `CN(C)c1cc(C(=O)N2CCN(S(C)(=O)=O)CC2)ccn1` stands -1%; under `CCC1c2ccsc2CCN1C(=O)NCc1cc[nH]n1` (stereo not drawn), -1.24%. In the case of `O=C(NCC1CCOC1)c1ccc(OCC(F)(F)F)nc1` (stereo not drawn) it was -5.4%. Turning to `CCN(CC1CCOC1)C(=O)Nc1ccc(N2CCCC2)nc1` (stereo not drawn), the cytotoxicity at 70.5 h is -0.947%.

For `CC(Nc1cccc(CN2CCOC2=O)c1)C(=O)Nc1ccccc1F` (stereo not drawn), the cytotoxicity at 70.5 h was -7.83%. Under `CC(C)N(Cc1cccc(F)c1)Cc1nc2c(cnn2C)c(=O)[nH]1` stands 0.718%. Under `CC(C)CCN(C)C(=O)c1nc(S(C)(=O)=O)n2ccccc12` stands 4.51%; under `CNC(=O)C1CCC(NC(=O)N(C)Cc2c(C)noc2C)CC1` (stereo not drawn), 31.6%; under `Cc1noc(C)c1CN(C)C(=O)NC1CCN(C2CC2)CC1`, -2.65%. In the case of `Cc1ccc(Cl)cc1N1CCC(CNC(=O)CC(F)(F)F)C1` (stereo not drawn) it was 1.39%. For the compound `Cn1cc(C(=O)NC2CCN(Cc3ccn(C)c(=O)c3)CC2)cn1`, the cytotoxicity at 70.5 h was -14%. Under `CC(C)(O)CN1CCN(C(=O)c2cc(Cl)cc3cccnc23)CC1` stands -11.7%; under `Cn1cnc2c1CCN(Cc1ccc(C(=O)N3CCCC3)cc1)C2`, -3.6%. In the case of `Cc1cc(C)n(CC2CCCN2CCCS(N)(=O)=O)n1` (stereo not drawn) it was -8.83%; in that of `Cn1cc(CN2CCCN(C(=O)c3cn4ccccc4n3)CC2)cn1`, -0.261%. Turning to `CS(=O)(=O)NCC1CCCN(C(=O)COCc2ccccc2)C1` (stereo not drawn), the cytotoxicity at 70.5 h was -12.3%. Take `O=C(NCc1cc[nH]n1)NCC(c1ccc(F)cc1)N1CCOCC1` (stereo not drawn): the cytotoxicity at 70.5 h was -12.9%. Under `CN1CCN(c2cc(CNC(=O)c3ccc(=O)[nH]n3)ccn2)CC1` stands -21.2%. Regarding `Cc1cc(C(=O)NCc2ccnc(N3CCN(C)CC3)c2)c(C)s1`, the cytotoxicity at 70.5 h was -18%.

On to `CC(O)CN1CCC(CNCc2ccccc2Br)CC1` (stereo not drawn), for which the cytotoxicity at 70.5 h was -1.26%.
